Measurements published in US11147785B2, “Modified free amino acid formulation and uses” (priority 2020, dated 2021).

Columns and labels:
[1] = system: hepatic and intestinal glucuronidation; conditions: concomitant administration; more in humans than rats; cited from earlier work
[2] = Topical application without propylene glycol; assay type: in vivo

Compound | Increase of bioavailability (serum concentration and extent of intestinal absorption) [1] | Efficacy in topical applications [2]
O=C(/C=C/C=C/c1ccc2c(c1)OCO2)N1CCCCC1 [Piperine] | up to 20 fold | 
N[C@@H](CCC(=O)O)C(=O)[O-].O.[Na+] [MSGLM, Monosodium L-Glutamate Monohydrate] |  | ineffective
